Assay results published in patent US8710095B2, “Drugs for prophylaxis or mitigation of taxane-induced neurotoxicity” (Bionumerik Pharmaceuticals, Inc., priority 2002, dated 2014).

What was measured:
female Wistar rats = assay: Paclitaxel-induced abnormal thermoesthesia, latent period for pseudo pain reactions (hot water bath 45° C.); assay type: in vivo, rat
Procedure: Paclitaxel was intravenously administered at a dose of 6 mg/kg once daily to female Wistar rats (8 rats per group) (the initial dosage date was defined as day 0). Treatment was repeated five times every other day.
The efficacy of 2,2′-dithiobis ethane sulfonate on the abnormal thermoesthesia occurring in response to the paclitaxel therapy was assessed using, as an index, a latent period for pseudo pain reactions. […] Each pseudo pain reaction-related latent period was measured on the day before the initial paclitaxel dosage (day −1, pretreatment), and daily for three days from the next day after the final paclitaxel dosage (from days 9 to 11, post-treatment), i.e., totally four times.
2,2′-dithiobis ethane sulfonate was, dissolved in water for injection to make its concentration 200 mg/ml upon use and the 2,2′-dithiobis ethane sulfonate solution thus prepared was intravenously administered at the dose of 500 mg/kg or 1,000 mg/kg immediately before the paclitaxel administration.

[1] = test system: patients in the Phase I studies (US & Japan); assay: US & Japan Phase I studies overall, incidence of neurotoxicity; assay type: in vivo, human
Procedure: Human clinical trials have been conducted in the United States, Europe and Japan regarding the safety and efficacy of the agents that make up this invention. These trials are ongoing. The following is a summary of the results obtained from early-stage (Phase 1) trials in the United States and Japan.
(§1) The number and percentage of patients who reported neurotoxicity in the Phase I studies compared with historical control data are summarized on the next page. Severity grades were measured according to NCI-CTC standards.
Overall, peripheral neuropathy, such as numbness, paresthesia or tingling, was reported in 54.5% of patients (30 patients, all severities) in the Phase I studies. The majority of neurotoxicity events experienced was mild in severity where 38.2% of patients (21 patients) reported Grade 1 neurotoxicity.

[2] = test system: patients with advanced Non-Small Cell Lung Cancer (NSCLC); assay: Phase I study in Japan: 2,2′-dithiobis ethane sulfonate with paclitaxel and cisplatin, incidence of neurotoxicity; assay type: in vivo, human; details: Japan (NSCLC) (n = 19), all doses 4.1 to 41.0 g/m^2
Procedure: In the Phase I study in Japan, patients received the following treatment regimen every 3 weeks: a single dose of paclitaxel (175 mg/m^2) administered intravenously over 3 hours, pre-cisplatin saline hydration for 1 hour, immediately followed by a single dose of 2,2′-dithiobis ethane sulfonate (4.1, 8.2, 12.3, 18.4, 27.6 and 41.0 g/m^2, depending on cohort assignment) administered intravenously over 30 minutes, a single dose of cisplatin (75 mg/m^2) administered intravenously over 1 hour and subsequently post-cisplatin saline hydration for 1.5 hours.
A total of 19 patients with advanced Non-Small Cell Lung Cancer (NSCLC) have been enrolled and treated in this study at four clinical sites in Japan. Each patient was to receive a total of three treatment cycles during this study. A total of 43 treatment courses of 2,2′-dithiobis ethane sulfonate with chemotherapy were given to 19 patients giving an average of 2.3 treatment cycles per patient. A total of 11 patients (57.9%) completed all three treatment cycles while 8 patients (42.1%) discontinued therapy prior to completing the three treatment cycles.
as §1

[3] = Overall (US & Japan) (n = 55), all doses 4.1 to 41.0 g/m^2, with paclitaxel and cisplatin
[4] = Phase I studies US & Japan, with paclitaxel and cisplatin

O=S(=O)([O-])CCSSCCS(=O)(=O)[O-].[Na+].[Na+] [2,2′-dithiobis ethane sulfonate]
Inhibition Rate (of latent period elongation) (female Wistar rats; 500 mg/kg iv with paclitaxel 6 mg/kg, Day 9): (17.8) % | Inhibition Rate (of latent period elongation) (female Wistar rats; 500 mg/kg iv with paclitaxel 6 mg/kg, Day 10): (18.0) % | Inhibition Rate (of latent period elongation) (female Wistar rats; 500 mg/kg iv with paclitaxel 6 mg/kg, Day 11): (19.4) % | Inhibition Rate (of latent period elongation) (female Wistar rats; 1,000 mg/kg iv with paclitaxel 6 mg/kg, Day 9): (43.3) % | Inhibition Rate (of latent period elongation) (female Wistar rats; 1,000 mg/kg iv with paclitaxel 6 mg/kg, Day 10): (38.0) % | Inhibition Rate (of latent period elongation) (female Wistar rats; 1,000 mg/kg iv with paclitaxel 6 mg/kg, Day 11): (51.0) % | effect on elongation of the latent period (female Wistar rats; 1000 mg/kg, day 9, p<0.05, Dunnet test): significant suppressing effects | effect on latent period (female Wistar rats; groups receiving 500 mg/kg or 1000 mg/kg in advance of paclitaxel): suppressing tendency as a whole | effect on paclitaxel-induced abnormal thermoesthesia (female Wistar rats; overall conclusion of Example 1): mitigates effectively | Incidence of neurotoxicity, Neurotoxicity Grade (NCI-CTC) 1 [1, 3]: 21 (38.2) Number (%) of Patients | Incidence of neurotoxicity, Neurotoxicity Grade (NCI-CTC) 2 [1, 3]: 9 (16.4) Number (%) of Patients | Incidence of neurotoxicity, Neurotoxicity Grade (NCI-CTC) 3 [1, 3]: 0 (0.0) Number (%) of Patients | Incidence of neurotoxicity, Neurotoxicity Grade (NCI-CTC) 4 [1, 3]: 0 (0.0) Number (%) of Patients | Incidence of neurotoxicity, Neurotoxicity Grade (NCI-CTC) ≧2 [1, 3]: 9 (16.4) Number (%) of Patients | Incidence of neurotoxicity, Overall (all grades) [1, 3]: 30 (54.5) Number (%) of Patients | incidence of moderate to severe (≧Grade 2) neurotoxicity [1, 4]: 16.4% | overall incidence of neurotoxicity (peripheral neuropathy, all severities), patients [1, 4]: 54.5% | patients who reported Grade 1 neurotoxicity [1, 4]: 38.2% | patients who reported Grade 2 peripheral neuropathy [1, 4]: 16.4% | Grade 3 or 4 neurotoxicity ([1]; Phase I studies, including patients who received up to 9 cycles of chemotherapy): No patient experienced Grade 3 or 4 neurotoxicity | peripheral neuropathy as dose limiting toxicity ([1]; administered concurrently with paclitaxel and cisplatin chemotherapy): not a dose limiting toxicity | effect on incidence of neurotoxicity versus historical control ([1]; concurrent administration with cisplatin and paclitaxel chemotherapy): decreases the incidence of neurotoxicity | Incidence of neurotoxicity, Neurotoxicity Grade (NCI-CTC) 1 [2]: 13 (68.4) Number (%) of Patients | Incidence of neurotoxicity, Neurotoxicity Grade (NCI-CTC) 2 [2]: 1 (5.2) Number (%) of Patients | Incidence of neurotoxicity, Neurotoxicity Grade (NCI-CTC) 3 [2]: 0 (0.0) Number (%) of Patients | Incidence of neurotoxicity, Neurotoxicity Grade (NCI-CTC) 4 [2]: 0 (0.0) Number (%) of Patients | Incidence of neurotoxicity, Neurotoxicity Grade (NCI-CTC) ≧2 [2]: 1 (5.2) Number (%) of Patients | Incidence of neurotoxicity, Overall (all grades) [2]: 14 (73.6) Number (%) of Patients
